Consider eight molecules from PubChem BioAssay (NCI).

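Compound exposure: 48 hours, 5 concentrations, 96-well plates. The concentration for 50% growth inhibition is given as GI50. TGI: total growth inhibition.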 Some results are limits rather than exact numbers.

Among the test systems are NCI-H460 lung; UACC-62 melanoma; MCF7 breast; HOP-62 NSCLC; SNB-19 CNS; NCI/ADR-RES ovarian; U251 CNS; HCT-15 colon; A549 NSCLC; UO-31 renal.
Holding throughout (assay): DTP human tumour cell line panel, 48 h

What is called GI50 is the concentration giving 50% growth inhibition. By TGI is commonly meant the concentration at which net growth stops. With `Clc1ccc(-c2csc(Nc3cccc(-c4csc(-c5ccccc5)n4)c3)n2)cc1`, the GI50 with NCI-H460 lung is 10.5 µM; with UACC-62 melanoma it was 6.24 µM; in the test on MCF7 breast it was 10.3 µM; with HOP-62 NSCLC, 10.7 µM; in the test with SNB-19 CNS it was 13 µM; with NCI/ADR-RES ovarian, 13 µM. Further, the GI50 was 7.39 µM in the test on U251 CNS, 6.01 µM with HCT-15 colon, 15.2 µM with A549 NSCLC and 12.4 µM in the test on UO-31 renal. Moreover, the total growth inhibition concentration (TGI) in the test with NCI-H460 lung was 27.1 µM; in the test with UACC-62 melanoma it was 13.6 µM; in the test with MCF7 breast, over 50 µM; in the test with HOP-62 NSCLC, 22.8 µM; with SNB-19 CNS, 27.3 µM; with NCI/ADR-RES ovarian, 24.2 µM. In addition, the total growth inhibition concentration (TGI) in the test on U251 CNS was found to be 14.1 µM; with HCT-15 colon, 14.7 µM; with A549 NSCLC, 43.4 µM; in the test on UO-31 renal, 27.4 µM.

In the case of `COc1cccc2c1-c1c(c3ccc([N+](=O)[O-])cc3c(=O)n1CCCN)C2=O`, the concentration for 50% growth inhibition (GI50) was 0.239 µM in the test on NCI-H460 lung; 1.89 µM in the test on UACC-62 melanoma; 0.0486 µM in the test with MCF7 breast; 1.13 µM with HOP-62 NSCLC; 1.35 µM in the test on SNB-19 CNS; 3.99 µM in the test with NCI/ADR-RES ovarian. The GI50 in the test with U251 CNS is 1.02 µM; in the test on HCT-15 colon, 1.4 µM; in the test with A549 NSCLC, 11 µM; in the test on UO-31 renal it was 1.26 µM. The TGI turned out to be 1.94 µM in the test with NCI-H460 lung; 7.95 µM with UACC-62 melanoma; 1.59 µM in the test with MCF7 breast; 2.5 µM in the test on HOP-62 NSCLC; 2.93 µM in the test on SNB-19 CNS; 19.1 µM in the test on NCI/ADR-RES ovarian. The TGI in the test with U251 CNS stood at 2.23 µM; in the test with HCT-15 colon it was 3.37 µM; in the test on A549 NSCLC it was 34.4 µM; with UO-31 renal it was 2.59 µM.

As for `O=C1C2=C(c3ccccc31)C(c1ccccc1)N1C(=O)CSC1=N2` (stereo not given), the TGI in the test on NCI-H460 lung is over 100 µM; in the test on UACC-62 melanoma it was over 100 µM; in the test on MCF7 breast, over 100 µM; with HOP-62 NSCLC it was over 100 µM; in the test on SNB-19 CNS, over 100 µM; in the test with NCI/ADR-RES ovarian, 59.1 µM. Besides, the TGI in the test on U251 CNS is over 100 µM; in the test with HCT-15 colon, 98.1 µM; in the test on A549 NSCLC, over 100 µM; in the test on UO-31 renal, over 100 µM.

For the molecule `COc1ccc2c(c1)CC[C@@H]1[C@@H]2CC[C@]2(C)[C@@H](NC(=O)/C=C/c3ccc(O)c(O)c3)CC[C@@H]12`, the GI50 in the test with NCI-H460 lung is 2.7 µM; in the test with UACC-62 melanoma, 2.12 µM; with MCF7 breast, 5.24 µM; with HOP-62 NSCLC, 3.03 µM; in the test with SNB-19 CNS it was 15.7 µM; in the test with NCI/ADR-RES ovarian it was 2 µM. Further, the GI50 with U251 CNS was 2.88 µM; in the test on HCT-15 colon, 3.2 µM; in the test with A549 NSCLC, 4.58 µM; with UO-31 renal, 1.26 µM. Also, the TGI is 9.93 µM with NCI-H460 lung; 6.19 µM in the test with UACC-62 melanoma; over 100 µM in the test on MCF7 breast; 11.1 µM in the test on HOP-62 NSCLC; 48.6 µM in the test with SNB-19 CNS; 6.05 µM with NCI/ADR-RES ovarian. The concentration for total growth inhibition (TGI) in the test with U251 CNS was found to be 11.2 µM; in the test with HCT-15 colon it was 15.4 µM; in the test with A549 NSCLC it was 17.6 µM; in the test with UO-31 renal, 15 µM.

As for `S=C(Nc1ccc(N=Nc2ccccc2)cc1)SCc1ccccc1`, the concentration for total growth inhibition (TGI) in the test with NCI-H460 lung was found to be 39.5 µM; in the test on UACC-62 melanoma, 31.8 µM; in the test with MCF7 breast, 64.6 µM; with HOP-62 NSCLC, 41.3 µM; in the test on SNB-19 CNS, 39.4 µM; in the test on NCI/ADR-RES ovarian, 35.1 µM. For the same molecule, the TGI in the test with U251 CNS was 29.7 µM; in the test with HCT-15 colon, 28.3 µM; with A549 NSCLC, 35.8 µM; with UO-31 renal, 34.9 µM.

`CCCCCCNC(=O)Oc1ccc(/C(=C(/C)Cc2ccc(OC)cc2)c2ccc(OCCCN(C)C)cc2)cc1`: the GI50 in the test with NCI-H460 lung was 14.1 µM; in the test with UACC-62 melanoma, 16.6 µM; with MCF7 breast it was 1.12 µM; with HOP-62 NSCLC, 18.4 µM; with SNB-19 CNS it was 17.2 µM; in the test with NCI/ADR-RES ovarian it was 15.8 µM. The GI50 in the test on U251 CNS is 13 µM; in the test with HCT-15 colon it was 8.71 µM; in the test on A549 NSCLC, 16.6 µM; in the test with UO-31 renal it was 10.9 µM. Moreover, the TGI in the test with NCI-H460 lung was determined as 28.2 µM; with UACC-62 melanoma, 30.4 µM; in the test on MCF7 breast it was 17.1 µM; in the test with HOP-62 NSCLC, 34.2 µM; with SNB-19 CNS, 31.5 µM; in the test on NCI/ADR-RES ovarian, 31.3 µM. The TGI with U251 CNS was 26.5 µM; in the test with HCT-15 colon, 21.9 µM; in the test with A549 NSCLC, 31.2 µM; in the test on UO-31 renal, 23.2 µM.

`CCOc1cc(Br)c(C(C)NC(=O)c2cccc(OC)c2)cc1OCC` (stereo not given): the GI50 in the test on NCI-H460 lung is 6.02 µM; with UACC-62 melanoma, 6.61 µM; in the test on MCF7 breast, 5.38 µM; in the test on HOP-62 NSCLC, 10.6 µM; with SNB-19 CNS, 11.8 µM; in the test on NCI/ADR-RES ovarian, 5.71 µM. Also, the GI50 was 11.4 µM in the test on U251 CNS, 5.82 µM in the test with HCT-15 colon, 10.8 µM with A549 NSCLC and 12.1 µM with UO-31 renal. For the same molecule, the TGI with NCI-H460 lung is over 81.5 µM; with UACC-62 melanoma, over 100 µM; in the test with MCF7 breast, over 100 µM; with HOP-62 NSCLC it was over 100 µM; with SNB-19 CNS, over 100 µM; in the test on NCI/ADR-RES ovarian it was over 100 µM. In addition, the TGI in the test on U251 CNS, in the test with HCT-15 colon, in the test with A549 NSCLC and with UO-31 renal was over 100 µM throughout.

Consider `O=C(CN1CCN(c2cc3c(cc2F)c(=O)c(C(=O)O)cn3C2CC2)CC1)Nc1nc(-c2ccc(Cl)cc2)cs1`, for which the GI50 in the test with NCI-H460 lung is 3.03 µM; in the test on UACC-62 melanoma it was 3.66 µM; with MCF7 breast, 3.06 µM; in the test with HOP-62 NSCLC, 4.16 µM; with SNB-19 CNS, 4.71 µM; in the test on NCI/ADR-RES ovarian, 5.62 µM. The GI50 is 3.74 µM in the test on U251 CNS, 3.23 µM with HCT-15 colon, 3.75 µM in the test with A549 NSCLC and 2.96 µM in the test with UO-31 renal. For the same molecule, the total growth inhibition concentration (TGI) with NCI-H460 lung is 12.7 µM; in the test on UACC-62 melanoma it was over 100 µM; with MCF7 breast, 36.1 µM; in the test with HOP-62 NSCLC, over 100 µM; in the test on SNB-19 CNS it was over 100 µM; with NCI/ADR-RES ovarian, over 100 µM. The TGI is over 100 µM with U251 CNS, 23.7 µM with HCT-15 colon, over 100 µM in the test on A549 NSCLC and over 100 µM in the test with UO-31 renal.
